# Measurements taken from patent US10194663B2, “Chemical stabilization of iodosulfuron-methyl sodium salt by hydroxystearates” (BAYER CROPSCIENCE AG, priority 2012, dated 2019).
# Experiment: Storage stability: degradation of IMS in OD formulations, determined by HPLC
# Assay type: physicochemical
# Conditions: for Degradation of IMS after 1 week at 54° C. / Degradation of IMS after 4 weeks at 40° C. / Degradation of IMS after 8 weeks at 40° C. / Degradation of IMS after 12 weeks at 35° C. / Degradation of IMS after 2 weeks at 54° C. / Degradation of IMS after 8 weeks at 40° C0: Emulsogen EL 400 10%
# Excerpt: The sodium salt of iodosulfuron-methyl (iodosulfuron-methyl-sodium, IMS) is finely dispersed by means of a rotor-stator mixer together with a customary emulsifier such as Emulsogen EL 400® (castor oil polyglycol ether from Clariant AG) in the solvents customary for OD formulations (oil dispersion formulations), such as rapeseed oil methyl ester or Solvesso 200 ND® (aromatics mixture from Exxon AG). Further formulation auxiliaries such as the thickener Bentone 38® (sheet silicate from Elementis AG) or the polymers Ligalub PEG 400 MO® (polyethylene glycol monooleate from Peter Greven GmbH), Ligalub 12 GE® (glyceryl dioleate from Peter Greven GmbH) or Ligalub 71 KE® (complex ester from Peter Greven GmbH) can, inter alia, also be added to the system. Furthermore, lithium hydroxystearate (lithium soap of a 12-hydroxystearic acid) was also additionally added for comparison purposes to each mixture.
# Tables 1 to 9 show the compositions of the tested OD formulations (% data in % by weight).
# The degradation of the IMS is determined here by means of HPLC.
# The degradation is expressed here in tables 1 to 9 in—xx %. This means that after the relevant period xx % of the originally present IMS was already degraded.
# [1] = Table 1 OD formulation: IMS 0.5%, Lithium hydroxystearate 0%, Bentone 38 1.2%, Rapeseed oil methyl ester 88.3%
# [2] = Table 1 OD formulation: IMS 0.5%, Lithium hydroxystearate 1%, Bentone 38 1.2%, Rapeseed oil methyl ester 87.3%
# [3] = Table 2 OD formulation: IMS 0.5%, Lithium hydroxystearate 0%, Solvesso 200 ND 89.5%
# [4] = Table 2 OD formulation: IMS 0.5%, Lithium hydroxystearate 0.5%, Solvesso 200 ND 89%
# [5] = Table 2 OD formulation: IMS 0.5%, Lithium hydroxystearate 1%, Solvesso 200 ND 88.5%
# [6] = Table 2 OD formulation: IMS 0.5%, Lithium hydroxystearate 5%, Solvesso 200 ND 84.5%
# [7] = Table 3 OD formulation: IMS 2%, Lithium hydroxystearate 0%, Solvesso 200 ND 88%
# [8] = Table 3 OD formulation: IMS 2%, Lithium hydroxystearate 1%, Solvesso 200 ND 87%
# [9] = Table 4 OD formulation: IMS 0.5%, Lithium hydroxystearate 0%, Ligalub PEG 400 MO 15%, Solvesso 200 ND 74.5%
# [10] = Table 4 OD formulation: IMS 0.5%, Lithium hydroxystearate 1%, Ligalub PEG 400 MO 15%, Solvesso 200 ND 73.5%
# [11] = Table 5 OD formulation: IMS 0.5%, Lithium hydroxystearate 0%, Ligalub PEG 400 MO 30%, Bentone 38 1.2%, Rapeseed oil methyl ester 58.3%
# [12] = Table 5 OD formulation: IMS 0.5%, Lithium hydroxystearate 1%, Ligalub PEG 400 MO 30%, Bentone 38 1.2%, Rapeseed oil methyl ester 57.3%
# [13] = Table 6 OD formulation: IMS 2%, Lithium hydroxystearate 0%, Ligalub PEG 400 MO 15%, Solvesso 200 ND 73%
# [14] = Table 6 OD formulation: IMS 2%, Lithium hydroxystearate 1%, Ligalub PEG 400 MO 15%, Solvesso 200 ND 72%
# [15] = Table 7 OD formulation: IMS 0.5%, Lithium hydroxystearate 0%, Ligalub 12 GE 30%, Bentone 38 1.2%, Rapeseed oil methyl ester 58.3%
# [16] = Table 7 OD formulation: IMS 0.5%, Lithium hydroxystearate 1%, Ligalub 12 GE 30%, Bentone 38 1.2%, Rapeseed oil methyl ester 57.3%
# [17] = Table 8 OD formulation: IMS 0.5%, Lithium hydroxystearate 0%, Ligalub 71 KE 15%, Solvesso 200 ND 74.5%
# [18] = Table 8 OD formulation: IMS 0.5%, Lithium hydroxystearate 1%, Ligalub 71 KE 15%, Solvesso 200 ND 73.5%
# [19] = Table 9 OD formulation: IMS 0.5%, Lithium hydroxystearate 0%, Ligalub 71 KE 30%, Bentone 38 1.2%, Rapeseed oil methyl ester 58.3%
# [20] = Table 9 OD formulation: IMS 0.5%, Lithium hydroxystearate 1%, Ligalub 71 KE 30%, Bentone 38 1.2%, Rapeseed oil methyl ester 57.3%
smiles,measurement,setting,value
CCCCCCC(O)CCCCCCCCCCC(=O)[O-].[Li+] (stereo not drawn) [lithium hydroxystearate],stabilizing effect on the sodium salt of iodosulfuron,hydroxystearate as thickener in oil-based liquid formulations of iodosulfuron-methyl sodium salt,particularly significantly stabilizing effect
"COC(=O)c1ccc(I)cc1S(=O)(=O)[N-]C(=O)Nc1nc(C)nc(OC)n1.[Na+] [IMS, iodosulfuron-methyl sodium salt]",Degradation of IMS after 1 week at 54° C.,[1],−78.3%
same,Degradation of IMS after 4 weeks at 40° C.,[1],−46.4%
same,Degradation of IMS after 8 weeks at 40° C.,[1],−69.7%
same,Degradation of IMS after 12 weeks at 35° C.,[1],−57.8%
same,Degradation of IMS after 1 week at 54° C.,[2],−23.9%
same,Degradation of IMS after 4 weeks at 40° C.,[2],−5%
same,Degradation of IMS after 8 weeks at 40° C.,[2],−8.7%
same,Degradation of IMS after 12 weeks at 35° C.,[2],−6.3%
same,Degradation of IMS after 2 weeks at 54° C.,[3],−87.9%
same,Degradation of IMS after 4 weeks at 40° C.,[3],−29.9%
same,Degradation of IMS after 2 weeks at 54° C.,[4],−32.2%
same,Degradation of IMS after 4 weeks at 40° C.,[4],−7.4%
same,Degradation of IMS after 2 weeks at 54° C.,[5],−28%
same,Degradation of IMS after 4 weeks at 40° C.,[5],−3.4%
same,Degradation of IMS after 2 weeks at 54° C.,[6],−14.7%
same,Degradation of IMS after 4 weeks at 40° C.,[6],−3.6%
same,Degradation of IMS after 2 weeks at 54° C.,[7],−34.6%
same,Degradation of IMS after 4 weeks at 40° C.,[7],−5.2%
same,Degradation of IMS after 2 weeks at 54° C.,[8],−13.1%
same,Degradation of IMS after 4 weeks at 40° C.,[8],−0.2%
same,Degradation of IMS after 2 weeks at 54° C.,[9],−93.2%
same,Degradation of IMS after 4 weeks at 40° C.,[9],−34.9%
same,Degradation of IMS after 2 weeks at 54° C.,[10],−37.8%
same,Degradation of IMS after 4 weeks at 40° C.,[10],−7.2%
same,Degradation of IMS after 2 weeks at 54° C.,[11],−87.4%
same,Degradation of IMS after 4 weeks at 40° C.,[11],−51.6%
same,Degradation of IMS after 8 weeks at 40° C0,[11],−77.2%
same,Degradation of IMS after 12 weeks at 35° C.,[11],−66.8%
same,Degradation of IMS after 2 weeks at 54° C.,[12],−45.8%
same,Degradation of IMS after 4 weeks at 40° C.,[12],−14.8%
same,Degradation of IMS after 8 weeks at 40° C0,[12],−21%
same,Degradation of IMS after 12 weeks at 35° C.,[12],−13.6%
same,Degradation of IMS after 2 weeks at 54° C.,[13],−81.8%
same,Degradation of IMS after 4 weeks at 40° C.,[13],−32.9%
same,Degradation of IMS after 2 weeks at 54° C.,[14],−32.7%
same,Degradation of IMS after 4 weeks at 40° C.,[14],−3.2%
same,Degradation of IMS after 1 week at 54° C.,[15],−42.4%
same,Degradation of IMS after 4 weeks at 40° C.,[15],−76.6%
same,Degradation of IMS after 8 weeks at 40° C.,[15],−65.9%
same,Degradation of IMS after 12 weeks at 35° C.,[15],−55.7%
same,Degradation of IMS after 1 week at 54° C.,[16],−11.8%
same,Degradation of IMS after 4 weeks at 40° C.,[16],−3.6%
same,Degradation of IMS after 8 weeks at 40° C.,[16],−4.7%
same,Degradation of IMS after 12 weeks at 35° C.,[16],−5.3%
same,Degradation of IMS after 2 weeks at 54° C.,[17],−66.6%
same,Degradation of IMS after 4 weeks at 40° C.,[17],−65%
same,Degradation of IMS after 2 weeks at 54° C.,[18],−9.86%
same,Degradation of IMS after 4 weeks at 40° C.,[18],−5.6%
same,Degradation of IMS after 1 week at 54° C.,[19],−75.8%
same,Degradation of IMS after 4 weeks at 40° C.,[19],−39.6%
same,Degradation of IMS after 8 weeks at 40° C.,[19],−63.6%
same,Degradation of IMS after 12 weeks at 35° C.,[19],−54.6%
same,Degradation of IMS after 1 week at 54° C.,[20],−11.4%
same,Degradation of IMS after 4 weeks at 40° C.,[20],−2.3%
same,Degradation of IMS after 8 weeks at 40° C.,[20],−3%
same,Degradation of IMS after 12 weeks at 35° C.,[20],−3%
